Assay results taken from US20240279302A1, “OLFACTORY RECEPTOR EXPRESSING METHOD AND RESPONSE MEASUREMENT METHOD” (Kao Corporation, priority 2021, published 2024).
Entries after “also recorded” stand apart in the source; their conditions may differ.

Key:
[1] = target: T1, consensus olfactory receptor 6B2 with R122C and C179R mutations (Homo sapiens, UniProt Q6IFH4, C161Y/C179R/C234R/E83D/G146A/H133Q/I215V/I48T/L135I/L142V/L17F/L255M/L256I/M157V/P138T/Q268R/Q89R/R122C/S64G/T78I/V136M/V15L/V166A/V250I/V281L/W219G); experiment: Luciferase assay (odorant response); format: cell-based; conditions: versus consensus 6B2
T1 construct: expressed in transfected cells; host or cells: HEK293
T1 sequence (Q6IFH4 with tags, fused parts or gaps with the stated changes): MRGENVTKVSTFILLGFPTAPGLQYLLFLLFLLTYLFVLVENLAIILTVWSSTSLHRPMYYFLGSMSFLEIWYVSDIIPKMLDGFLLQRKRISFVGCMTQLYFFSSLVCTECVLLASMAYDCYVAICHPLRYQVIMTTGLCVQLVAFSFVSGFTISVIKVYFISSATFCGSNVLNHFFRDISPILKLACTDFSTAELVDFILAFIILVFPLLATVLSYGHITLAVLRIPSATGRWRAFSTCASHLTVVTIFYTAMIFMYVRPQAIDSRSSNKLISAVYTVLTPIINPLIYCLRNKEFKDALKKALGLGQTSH
Experimental: (§1) For luciferase assay, a reaction solution was prepared according to composition shown in Table 4, left standing for 20 minutes in a clean bench, and then added to each well of a 96-well plate (Becton, Dickinson and Company). Subsequently, 100 μL of HEK293 cells suspended in DMEM (Nacalai Tesque, Inc.) was inoculated at 2×10^5 cells/cm^2 to each well, and cultured for 24 hours in an incubator kept at 37° C. and 5% CO2. Cells expressing no olfactory receptor (Mock) were provided as a control.
(§2) The medium was removed from the cultures prepared in 2), and 75 μL of a test substance solution with a predetermined concentration prepared with a fresh medium was added thereto. The cells were cultured for 4 hours in a CO2 incubator and the luciferase gene was sufficiently expresses in the cells. Luciferase activity was measured using Dual-Glo™ luciferase assay system (Promega Corp.) in accordance with the operation manual of the product. A luminescence value derived from firefly luciferase induced by test substance stimulation in each well of the 96-well plate was divided by a luminescence value derived from Renilla luciferase to calculate a signal, which was then used in analysis. The signal under each transfection condition was normalized with the signal under a stimulation-free condition defined as 0% and the signal by stimulation with 30 μM forskolin defined as 100%, and used as a response (%) in analysis.
(§3) Whether responsiveness coinciding with difference among individuals in sensory evaluation would be obtained was tested by applying the consensus design (c) to each human olfactory receptor newly identified in FIGS. 5 and 6, and then introducing an amino acid sequence reported to have difference among individuals (FIG. 7).

[2] = target: T2, OR2A25 (original human receptor) (Homo sapiens, UniProt A4D2G3); experiment: Luciferase assay (odorant response); format: cell-based
T2 construct: expressed in transfected cells; host or cells: HEK293
T2 sequence (A4D2G3 whole entry): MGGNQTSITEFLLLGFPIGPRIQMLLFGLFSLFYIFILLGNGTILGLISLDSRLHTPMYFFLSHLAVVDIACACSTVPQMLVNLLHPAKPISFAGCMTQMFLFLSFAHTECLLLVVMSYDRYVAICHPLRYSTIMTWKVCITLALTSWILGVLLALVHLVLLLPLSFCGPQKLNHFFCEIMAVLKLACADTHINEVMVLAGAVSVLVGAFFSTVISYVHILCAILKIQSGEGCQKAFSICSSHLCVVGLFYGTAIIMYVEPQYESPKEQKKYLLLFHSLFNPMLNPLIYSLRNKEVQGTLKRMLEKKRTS
Experimental: as §1, §2

[3] = target: T3, consensus OR10A2 variant of H43R, H207R, and K258T (Homo sapiens, UniProt Q9H208, A297G/C30S/G257S/H207R/H43R/I240V/K258T/M268V/N222H/T20I/V292F); experiment: Luciferase assay (odorant response); format: cell-based
T3 construct: expressed in transfected cells; host or cells: HEK293
T3 sequence (Q9H208 with tags, fused parts or gaps with the stated changes): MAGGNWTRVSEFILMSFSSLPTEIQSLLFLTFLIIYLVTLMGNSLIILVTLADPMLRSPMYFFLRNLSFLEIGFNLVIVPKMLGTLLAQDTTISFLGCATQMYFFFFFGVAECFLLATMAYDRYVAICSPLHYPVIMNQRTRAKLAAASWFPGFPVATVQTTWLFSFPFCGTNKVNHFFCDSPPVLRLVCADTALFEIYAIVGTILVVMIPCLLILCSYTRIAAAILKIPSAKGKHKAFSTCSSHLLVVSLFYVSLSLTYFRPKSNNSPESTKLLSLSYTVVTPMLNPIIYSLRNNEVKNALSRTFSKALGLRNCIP
Experimental: as §1, §2, §3

[4] = target: T4, consensus 10A4 R262Q variant (Homo sapiens, UniProt Q9H209, A244S/A267T/E4G/H132R/H139R/I140R/I51T/K296S/K303R/L305V/Q237K/Q264R/R262Q/S141A/S155P/S269P/S279Y/S293L/S312P/T22S/V195L); experiment: Luciferase assay (odorant response); format: cell-based
T4 construct: expressed in transfected cells; host or cells: HEK293
Experimental: as §1, §2, §3

[5] = target: T5, consensus 10A2, (c) Ortholog (Homo sapiens, UniProt Q9H208, A297G/C30S/G257S/H207R/I240V/M268V/N222H/T20I/V292F); experiment: Luciferase assay (odorant response); format: cell-based
T5 construct: expressed in transfected cells; host or cells: HEK293
T5 sequence (Q9H208 with tags, fused parts or gaps T20I/C30S/H207R/N222H/I240V/G257S/M268V/V292F/A297G): as the sequence (Q9H208 with tags, fused parts or gaps with the stated changes) above, with R57H, T272K counted along it
Experimental: as §1, §2

[6] = target: T6, consensus 10A4, (c) Ortholog (Homo sapiens, UniProt Q9H209, A244S/A267T/E4G/H132R/H139R/I140R/I51T/K296S/K303R/L305V/Q237K/Q264R/S141A/S155P/S269P/S279Y/S293L/S312P/T22S/V195L); experiment: Luciferase assay (odorant response); format: cell-based
T6 construct: expressed in transfected cells; host or cells: HEK293
T6 sequence (Q9H209 1-315 with the stated changes): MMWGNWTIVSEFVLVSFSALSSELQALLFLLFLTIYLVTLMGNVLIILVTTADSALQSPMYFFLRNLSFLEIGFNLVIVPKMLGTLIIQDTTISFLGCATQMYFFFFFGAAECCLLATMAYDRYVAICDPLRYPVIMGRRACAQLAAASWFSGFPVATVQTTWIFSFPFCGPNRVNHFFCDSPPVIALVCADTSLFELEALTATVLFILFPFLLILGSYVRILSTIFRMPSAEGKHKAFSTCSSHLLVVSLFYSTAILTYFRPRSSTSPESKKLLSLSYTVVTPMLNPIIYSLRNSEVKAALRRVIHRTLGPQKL
Experimental: as §1, §2

[7] = target: T7, consensus olfactory receptor 5C1 with N5K mutation (Homo sapiens, UniProt Q8NGR4, A10R/A30T/A50V/C35F/G245C/H231R/H313C/I178V/I206V/K177E/L166F/L6F/M255L/M47V/M55V/N23D/N5K/Q142R/Q307R/R131G/R8W/S194N/S238R/S288A/T114A/T219A/T34I/V17I/V235A); experiment: Luciferase assay (odorant response); format: cell-based; conditions: versus consensus 5C1
T7 construct: expressed in transfected cells; host or cells: HEK293
T7 sequence (Q8NGR4 1-320 with the stated changes): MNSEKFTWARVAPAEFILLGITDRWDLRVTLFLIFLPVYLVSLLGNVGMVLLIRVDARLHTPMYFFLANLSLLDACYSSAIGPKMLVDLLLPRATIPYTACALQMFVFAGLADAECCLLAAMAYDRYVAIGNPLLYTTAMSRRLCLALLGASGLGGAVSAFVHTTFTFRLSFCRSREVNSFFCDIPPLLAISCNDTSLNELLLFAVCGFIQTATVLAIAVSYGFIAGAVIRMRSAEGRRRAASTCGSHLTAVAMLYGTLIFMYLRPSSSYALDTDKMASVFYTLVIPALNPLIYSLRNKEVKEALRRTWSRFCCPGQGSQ
Experimental: as §1, §2, §3

6Y1 = conditions: as disclosed in Non Patent Literature 2; cited from earlier work

Compound	responsiveness of the 10A2 variant of H43R, H207R, and K258T [3]	responsiveness of the 10A4 R262Q variant [4]	response of consensus 10A2 [5]	response of consensus 10A4 [6]	further results
CC(C)C=O [isobutyraldehyde]					responsiveness of consensus 6B2 with R122C and C179R [1]: markedly reduced
CC(C)=CCC/C(C)=C/CO [geraniol]					response of 2A25 (ranking of affinity for 2 agonists) [2]: responded to geraniol at a lower concentration in comparison with geranyl formate
CCCCCCCCC/C=C/C=O [(E)-2-dodecenal]	markedly low responsiveness	no change in responsiveness	can recognize	can recognize; also recorded: lower responsiveness	
CC(C)=CCCC(C)=CC=O [citral]					responsiveness of consensus 5C1 with N5K [7]: markedly reduced
CC(=O)C(C)=O [diacetyl]					response of 6Y1 (6Y1): responds
CCCCCCC/C=C/C=O [(E)-2-decenal]	markedly low responsiveness	no change in responsiveness	can recognize	can recognize; also recorded: lower responsiveness	
